Experiments:
[1] = Modified Western blot: native PAGE gel of liver lysate incubated with fluorescent propeptide; type: binding, rat; details: FIG. 4
Text: (§1) Rat liver tissue from an old (23 months) rat and mouse liver tissue from a young mouse (3 months) was obtained from Dr. Eric R. Blough (Biology department, Marshall University, Huntington, W. Va.). 0.104 g of liver tissue from the young mouse and 0.20 g of tissue from the old rat were placed in separate microcentrifuge tubes and washed thoroughly with phosphate buffered saline (“PBS”).
(§2) Rat liver tissue was lysed using CellLytic-MT lysis buffer (Sigma) following the procedure provided from Sigma. Along with the lysis buffer, a protease inhibitor cocktail containing pepstatin, aprotinin, and leupeptin was added. The samples were then centrifuged for 15 minutes at 14,000 rpm. Supernatant containing the cellular proteins was pulled from the samples and centrifuged for another 10 minutes.
(§3) Proteins from the lysate were separated by Native PAGE on a 12% polyacrylamide gel. The gel was run using Tris/Glycine running buffer for one hour at 200 V.
(§4) After protein separation by PAGE was complete, a picture of the gel was taken using an ultraviolet (“UV”) lamp to excite any fluorescent molecules. The UV exposure time was 20 s. The gel was then incubated with the fluorescent labeled Apo AI propeptide in Tris buffered saline with 5% Tween (“TBST”) overnight on a rocking platform. Another picture of the gel was taken using the same UV exposure time as the initial picture. […]

[2] = system: human epithelial cells; assay: Confocal microscopy of epithelial cells treated with fluorescently labeled propeptide; type: cell-based
Text: (§5) A peptide with the amino acid sequence WEFWQQ (corresponding to the rat sequence of the Apo AI propeptide) containing a fluorescein group attached to the N-terminus was custom synthesized by Cambridge biochemical reagents. Synthetic version of the peptide was made using standard Merrifield peptide synthesis techniques (http://en.wikipedia.org/wiki/Peptide_synthesis). Other standard techniques that would apply here would be the use of bacteria to synthesize large quantities of the peptide (http://en.wikipedia.org/wiki/Recombinant_DNA).
(§6) Liver tissue was obtained from lean Zucker rats and placed in liver digest media. The liver digest media was then drained into a conical vial and the liver was placed in another sterile beaker of hepatozyme wash media. Clean gauze was placed at the opening to the conical vials and the liver was washed with the hepatozyme wash media yet again. This process filtered the liver cells into the conical vials. The cells were centrifuged for five minutes at 6000 rpm. The cells were washed thoroughly with hepatozyme wash media and then resuspended in 5% Fetal Bovine Serum, 2 mM glutamine hepatozyme wash medium and pipetted into collagen wells. The collagen well plates were incubated at 37° Celsius and 5% CO2. After 19 hours, the media was replaced with clean, fresh Hepatozyme-SFM (3 mL). The media was further supplemented with L-glutamine (2 mM) after 23 hours. […]

[3] = system: Zucker rat liver cells; assay: Confocal microscopy of liver cells treated with fluorescently labeled propeptide; type: cell-based
Text: as §5, §6

[4] = molecular target: T1, oxysterol receptor LXRβ (Rattus norvegicus, UniProt Q62755); assay: Peptide bead pull-down from liver lysate, SDS-PAGE, MALDI-TOF peptide mass fingerprint; type: binding; details: lean Zucker rat liver lysate; peptide attached to benzyloxybenzylbromide resin at N-terminus; Mascot search; FIG. 6
T1 construct: Liver tissue from a lean Zucker rat was lysed; from tissue; host or cells: liver of lean Zucker rat (lysate, CellLytic-MT buffer)
T1 sequence (Q62755 1-446): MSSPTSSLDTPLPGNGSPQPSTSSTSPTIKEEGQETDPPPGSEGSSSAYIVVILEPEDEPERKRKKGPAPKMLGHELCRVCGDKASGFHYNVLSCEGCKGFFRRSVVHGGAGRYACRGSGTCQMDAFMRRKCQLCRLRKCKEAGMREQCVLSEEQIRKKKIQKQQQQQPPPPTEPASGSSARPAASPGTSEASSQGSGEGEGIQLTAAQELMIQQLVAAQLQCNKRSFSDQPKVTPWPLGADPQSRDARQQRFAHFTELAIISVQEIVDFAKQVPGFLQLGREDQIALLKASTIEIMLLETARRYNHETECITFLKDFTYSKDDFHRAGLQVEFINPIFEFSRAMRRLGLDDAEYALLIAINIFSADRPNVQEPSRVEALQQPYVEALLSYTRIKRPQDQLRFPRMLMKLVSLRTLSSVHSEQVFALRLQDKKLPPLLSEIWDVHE
Text: The Apo AI propeptide was attached to benzyloxybenzylbromide resin at its N-terminus. Rat liver tissue was lysed using CellLytic-MT lysis buffer using the procedure outlined above. This buffer may be purchased from Sigma-Aldrich Corp. (“Sigma”) (St. Louis, Mo.). […] The protein lysate was removed and added to the peptide modified beads. The solution was shaken for one hour; the supernatant was then removed leaving only the resin beads. The resin beads were washed three times with PBS, and then 30 μl of gel loading solution was added to the resin beads. The solution was heated at 100° C. for five minutes and then loaded onto a polyacrylamide gel (4-20% polyacrylamide) and separated by SDS-PAGE.
Protein bands of interest were cut from the gel and digested with trypsin overnight following the procedure used at University of California, San Francisco (http://donatello.ucsf.edu/ingel.html). The peptide fragments were analyzed on a Bruker MALDI-TOF mass spectrometer which provided the peptide fragment molecular weight maps of the proteins for protein identification.
Another set of experiments were designed to determine the identity of any proteins capable of binding to the Apo AI propeptide. The Apo AI propeptide, WEFWQQ, was attached to benzyloxybenzylbromide resin beads at its N-terminus. […]

[5] = Modified Western blot: native PAGE gel of liver lysate incubated with fluorescent propeptide; type: binding; details: young mouse (3 months) liver lysate, FIG. 5 Arrow 1
Text: as §1, §2, §3, §4

WEFWQQ (PROPEP (1)..(6); listed as Rattus norvegicus)
binding to a protein on the gel (new fluorescent band after incubation) ([1]; old rat (23 months) liver lysate, overnight incubation): binding to a protein on the gel | fluorescence of higher molecular weight band (possibly DNA) after peptide incubation ([1]; old rat liver lysate): increase in the fluorescence intensity of a higher molecular weight band | time to entry into cells after peptide application [2]: within seconds | entry of the propeptide into cells and nucleus (confocal image) ([3]; Zucker rat liver cells, peptide labeled at N-terminus with fluorescein, FIG. 1): clearly entering the cells and entering the nucleus of the cells | time to entry into cells after peptide application ([3]; liver cells, fluorescently labeled peptide): within seconds | identity of the protein bound to the peptide beads (band at about 45 kDa) [4]: identified the protein as the oxysterol receptor LXRβ | fluorescent band after incubation with the peptide [5]: same band as was seen in FIG. 4
